{"source": "ChEMBL document CHEMBL3217536", "about": "“Structureactivity relationships of gramicidin S analogs containing (-3-pyridyl)-,-dehydroalanine residues on membrane permeability” (Medchemcomm, 2011)", "key": {"Staphylococcus aureus [1]": {"system": "Staphylococcus aureus", "test": "Antimicrobial activity against Staphylococcus aureus FDA 209P after 20 hrs by liquid microdilution method", "format": "functional"}, "Staphylococcus aureus [2]": {"system": "Staphylococcus aureus", "test": "Induction of cytoplasmic membrane disruption in Staphylococcus aureus FDA 209P assessed as change in potassium permeability after 30 mins", "format": "functional", "settings": "for EC50: 0.5 h, read-out: ED50 (the source's name)"}, "Escherichia coli [3]": {"system": "Escherichia coli", "test": "Antimicrobial activity against Escherichia coli K-12 W3110 assessed as decrease in cell survival after 30 mins by colony counting method", "format": "functional", "settings": "K-12 W3110, 0.5 h"}, "Staphylococcus aureus [4]": {"system": "Staphylococcus aureus", "test": "Antimicrobial activity against Staphylococcus aureus FDA 209P assessed as decrease in cell survival after 30 mins by colony counting method", "format": "functional", "settings": "0.5 h"}, "Escherichia coli [5]": {"system": "Escherichia coli", "test": "Induction of cytoplasmic membrane disruption in Escherichia coli K-12 W3110 assessed as change in potassium permeability after 30 mins", "format": "functional", "settings": "K-12 W3110, 0.5 h, read-out: ED50 (the source's name)"}, "[6]": {"test": "Hemolytic activity against human erythrocytes", "format": "ADME, cell-based, Erythrocyte", "settings": "read-out: ED50 (the source's name)"}, "Escherichia coli [7]": {"system": "Escherichia coli", "test": "Antimicrobial activity against Escherichia coli K-12 W3110 after 20 hrs by liquid microdilution method", "format": "functional", "settings": "K-12 W3110, 20 h"}, "Escherichia coli [8]": {"system": "Escherichia coli", "test": "Antimicrobial activity against Escherichia coli K-12 W3110 after 20 hrs by liquid microdilution method in presence of PMBN", "format": "functional"}}, "note": "The source made the active and inactive calls. The calls are words filed in the database; no cut-off is given here. *1 amine or outer side, *2 acyl side, *3 side chain or, on linkers, in order; H or OH if unused. Where a SMILES comes first, the peptide text is derived from it. [ ]: non-standard residue; d: D form. X1 = O=C(/C(=C/c1cccnc1)N[*:1])[*:2]; X2 = O=C(/C(=C/c1ccccc1)N[*:1])[*:2]; d3Pal = N[C@H](Cc1cccnc1)C(=O)O; Orn = NCCC[C@H](N)C(=O)O"}
{"smiles": "CC(C)C[C@@H]1NC(=O)[C@H](CCCN)NC(=O)[C@H](C(C)C)NC(=O)[C@@H]2CCCN2C(=O)/C(=C/c2ccccc2)NC(=O)[C@H](CC(C)C)NC(=O)[C@H](CCCN)NC(=O)[C@H](C(C)C)NC(=O)[C@@H]2CCCN2C(=O)/C(=C/c2cccnc2)NC1=O", "note": "(cyclo(L[X2]PV[Orn]L[X1]PV[Orn]))", "values": [{"measurement": "MIC", "setting": "Staphylococcus aureus [1]", "result": 3, "unit": "µM"}, {"measurement": "EC50", "setting": "Staphylococcus aureus [2]", "result": 5, "unit": "µM"}, {"measurement": "LC50", "setting": "Escherichia coli [3]", "result": 50, "unit": "µM"}, {"measurement": "LC50", "setting": "Staphylococcus aureus [4]", "result": 10, "unit": "µM"}, {"measurement": "EC50", "setting": "Escherichia coli [5]", "result": 50, "unit": "µM"}, {"measurement": "HC50", "setting": "[6]", "result": 20, "unit": "µM"}, {"measurement": "MIC", "setting": "Escherichia coli [7]", "result": 26, "unit": "µM"}]}
{"smiles": "CC(C)C[C@@H]1NC(=O)[C@H](CCCN)NC(=O)[C@H](C(C)C)NC(=O)[C@@H]2CCCN2C(=O)[C@@H](Cc2ccc(O)cc2)NC(=O)[C@H](CC(C)C)NC(=O)[C@H](CCCN)NC(=O)[C@H](C(C)C)NC(=O)[C@@H]2CCCN2C(=O)[C@@H](Cc2ccc(O)cc2)NC1=O", "note": "(cyclo(L[dY]PV[Orn]L[dY]PV[Orn]))", "values": [{"measurement": "MIC", "setting": "Staphylococcus aureus [1]", "result": 3, "unit": "µM"}, {"measurement": "HC50", "setting": "[6]", "result": 10, "unit": "µM"}, {"measurement": "MIC", "setting": "Escherichia coli [7]", "result": 26, "unit": "µM"}]}
{"smiles": "CC(C)C[C@@H]1NC(=O)[C@H](CCCN)NC(=O)[C@H](C(C)C)NC(=O)[C@@H]2CCCN2C(=O)[C@@H](Cc2ccccc2)NC(=O)[C@H](CC(C)C)NC(=O)[C@H](CCCN)NC(=O)[C@H](C(C)C)NC(=O)[C@@H]2CCCN2C(=O)[C@@H](Cc2ccccc2)NC1=O", "note": "[GRAMICIDIN S] (cyclo(L[dF]PV[Orn]L[dF]PV[Orn]))", "values": [{"measurement": "MIC", "setting": "Staphylococcus aureus [1]", "result": 3, "unit": "µM"}, {"measurement": "Activity", "setting": "Staphylococcus aureus [2]", "result": "Dose-dependent effect"}, {"measurement": "EC50", "setting": "Staphylococcus aureus [2]", "result": 2, "unit": "µM"}, {"measurement": "LC50", "setting": "Escherichia coli [3]", "result": 20, "unit": "µM"}, {"measurement": "MIC", "setting": "Escherichia coli [8]; K-12 W3110, 20 h", "result": 4, "unit": "µg/mL"}, {"measurement": "LC50", "setting": "Staphylococcus aureus [4]", "result": 5, "unit": "µM"}, {"measurement": "EC50", "setting": "Escherichia coli [5]", "result": 20, "unit": "µM"}, {"measurement": "HC50", "setting": "[6]", "result": 5, "unit": "µM"}, {"measurement": "MIC", "setting": "Escherichia coli [7]", "result": 13, "unit": "µM"}]}
{"smiles": "CC(C)C[C@@H]1NC(=O)[C@H](CCCN)NC(=O)[C@H](C(C)C)NC(=O)[C@@H]2CCCN2C(=O)/C(=C/c2cccnc2)NC(=O)[C@H](CC(C)C)NC(=O)[C@H](CCCN)NC(=O)[C@H](C(C)C)NC(=O)[C@@H]2CCCN2C(=O)/C(=C/c2cccnc2)NC1=O", "note": "(cyclo(L[X1]PV[Orn]L[X1]PV[Orn]))", "values": [{"measurement": "MIC", "setting": "Staphylococcus aureus [1]", "result": 6, "unit": "µM"}, {"measurement": "Activity", "setting": "Staphylococcus aureus [2]", "result": "Dose-dependent effect"}, {"measurement": "EC50", "setting": "Staphylococcus aureus [2]", "result": 5, "unit": "µM"}, {"measurement": "LC50", "setting": "Escherichia coli [3]", "result": 50, "unit": "µM"}, {"measurement": "Activity", "setting": "Escherichia coli [8]", "result": "inactive"}, {"measurement": "LC50", "setting": "Staphylococcus aureus [4]", "result": 10, "unit": "µM"}, {"measurement": "EC50", "setting": "Escherichia coli [5]", "result": 50, "unit": "µM"}, {"measurement": "HC50", "setting": "[6]", "result": "> 100", "unit": "µM"}, {"measurement": "MIC", "setting": "Escherichia coli [7]", "result": 26, "unit": "µM"}]}
{"smiles": "CC(C)C[C@@H]1NC(=O)[C@H](CCCN)NC(=O)[C@H](C(C)C)NC(=O)[C@@H]2CCCN2C(=O)[C@@H](Cc2cccnc2)NC(=O)[C@H](CC(C)C)NC(=O)[C@H](CCCN)NC(=O)[C@H](C(C)C)NC(=O)[C@@H]2CCCN2C(=O)[C@@H](Cc2cccnc2)NC1=O", "note": "(cyclo(L[d3Pal]PV[Orn]L[d3Pal]PV[Orn]))", "values": [{"measurement": "MIC", "setting": "Staphylococcus aureus [1]", "result": 50, "unit": "µM"}, {"measurement": "EC50", "setting": "Staphylococcus aureus [2]", "result": 20, "unit": "µM"}, {"measurement": "LC50", "setting": "Escherichia coli [3]", "result": 100, "unit": "µM"}, {"measurement": "LC50", "setting": "Staphylococcus aureus [4]", "result": 20, "unit": "µM"}, {"measurement": "EC50", "setting": "Escherichia coli [5]", "result": 50, "unit": "µM"}, {"measurement": "HC50", "setting": "[6]", "result": "> 100", "unit": "µM"}, {"measurement": "MIC", "setting": "Escherichia coli [7]", "result": 50, "unit": "µM"}]}
{"smiles": "CC(C)C[C@@H]1NC(=O)[C@H](C)NC(=O)[C@H](C(C)C)NC(=O)[C@@H]2CCCN2C(=O)/C(=C/c2cccnc2)NC(=O)[C@H](CC(C)C)NC(=O)[C@H](CCCN)NC(=O)[C@H](C(C)C)NC(=O)[C@@H]2CCCN2C(=O)/C(=C/c2cccnc2)NC1=O", "note": "(cyclo(AL[X1]PV[Orn]L[X1]PV))", "values": [{"measurement": "MIC", "setting": "Staphylococcus aureus [1]", "result": 13, "unit": "µM"}, {"measurement": "EC50", "setting": "Staphylococcus aureus [2]", "result": 10, "unit": "µM"}, {"measurement": "LC50", "setting": "Escherichia coli [3]", "result": "> 100", "unit": "µM"}, {"measurement": "LC50", "setting": "Staphylococcus aureus [4]", "result": 10, "unit": "µM"}, {"measurement": "EC50", "setting": "Escherichia coli [5]", "result": "> 100", "unit": "µM"}, {"measurement": "HC50", "setting": "[6]", "result": 50, "unit": "µM"}, {"measurement": "MIC", "setting": "Escherichia coli [7]", "result": 106, "unit": "µM"}]}
{"smiles": "CC(C)C[C@@H]1NC(=O)[C@H](C)NC(=O)[C@H](C(C)C)NC(=O)[C@@H]2CCCN2C(=O)/C(=C/c2cccnc2)NC(=O)[C@H](CC(C)C)NC(=O)[C@H](C)NC(=O)[C@H](C(C)C)NC(=O)[C@@H]2CCCN2C(=O)/C(=C/c2cccnc2)NC1=O", "note": "(cyclo(AL[X1]PVAL[X1]PV))", "values": [{"measurement": "MIC", "setting": "Staphylococcus aureus [1]", "result": 114, "unit": "µM"}, {"measurement": "EC50", "setting": "Staphylococcus aureus [2]", "result": 50, "unit": "µM"}, {"measurement": "LC50", "setting": "Escherichia coli [3]", "result": "> 100", "unit": "µM"}, {"measurement": "LC50", "setting": "Staphylococcus aureus [4]", "result": 50, "unit": "µM"}, {"measurement": "EC50", "setting": "Escherichia coli [5]", "result": "> 100", "unit": "µM"}, {"measurement": "HC50", "setting": "[6]", "result": 50, "unit": "µM"}, {"measurement": "MIC", "setting": "Escherichia coli [7]", "result": "> 114", "unit": "µM"}]}
{"smiles": "CO[C@@H]1[C@@H](OC(N)=O)[C@@H](O)[C@H](Oc2ccc3c(O)c(NC(=O)c4ccc(O)c(CC=C(C)C)c4)c(=O)oc3c2C)OC1(C)C", "values": [{"measurement": "Activity", "setting": "Escherichia coli [8]", "result": "Active"}]}
{"smiles": "CC(C)C[C@@H]1NC(=O)[C@H](CCCN)NC(=O)[C@H](C(C)C)NC(=O)[C@@H]2CCCN2C(=O)/C(=C/c2ccccc2)NC(=O)[C@H](CC(C)C)NC(=O)[C@H](CCCN)NC(=O)[C@H](C(C)C)NC(=O)[C@@H]2CCCN2C(=O)/C(=C/c2ccccc2)NC1=O", "note": "(cyclo(L[X2]PV[Orn]L[X2]PV[Orn]))", "values": [{"measurement": "MIC", "setting": "Staphylococcus aureus [1]", "result": 3, "unit": "µM"}, {"measurement": "EC50", "setting": "Staphylococcus aureus [2]", "result": 5, "unit": "µM"}, {"measurement": "LC50", "setting": "Escherichia coli [3]", "result": 20, "unit": "µM"}, {"measurement": "LC50", "setting": "Staphylococcus aureus [4]", "result": 5, "unit": "µM"}, {"measurement": "EC50", "setting": "Escherichia coli [5]", "result": 20, "unit": "µM"}, {"measurement": "HC50", "setting": "[6]", "result": 5, "unit": "µM"}, {"measurement": "MIC", "setting": "Escherichia coli [7]", "result": 26, "unit": "µM"}]}
